pIC50: −log10 of the molar value. Active and inactive are the calls of the source. The rule behind the calls is not given here.
Tests used:
[1] = Cytotoxicity against human LX-2 cells by CCK-8 assay; assay type: toxicity, cell-based
[2] = biological target: T1, Vitamin D3 receptor (Homo sapiens) (UniProt P11473); assay: Binding affinity to human full-length Vitamin D receptor assessed as relative binding affinity at 1 uM incubated for 2 hrs by fluorescence polarization based competitive binding assay relative to calcipotriol
T1 sequence (whole entry): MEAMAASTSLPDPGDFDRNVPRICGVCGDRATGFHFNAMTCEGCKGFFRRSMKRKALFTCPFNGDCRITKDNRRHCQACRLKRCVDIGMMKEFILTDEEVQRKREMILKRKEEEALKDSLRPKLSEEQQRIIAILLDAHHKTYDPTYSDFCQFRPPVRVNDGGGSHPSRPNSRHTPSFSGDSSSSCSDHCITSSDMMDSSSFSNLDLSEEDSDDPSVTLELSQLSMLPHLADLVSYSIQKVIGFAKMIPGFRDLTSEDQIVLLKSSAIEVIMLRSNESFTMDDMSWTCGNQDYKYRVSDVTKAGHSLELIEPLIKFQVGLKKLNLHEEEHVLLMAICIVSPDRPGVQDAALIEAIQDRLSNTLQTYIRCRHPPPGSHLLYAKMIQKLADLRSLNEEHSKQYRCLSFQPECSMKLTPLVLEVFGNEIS

[3] = biological target: T1, Vitamin D3 receptor (Homo sapiens); assay: Agonist activity at Vitamin D receptor in human LX-2 cells assessed as transcriptional activity by measuring induction of CYP24A expression at 0.5 uM by RT-qPCR analysis relative to control; assay type: cell-based

Structure (SMILES) | pIC50 [1] | RBA ([2]; filed as agonist) [%] | RBA [2] [%] | Activity [3] | Activity ([3]; filed as agonist)
CCN(CC)CCCOc1ccc(/C=C/c2ccc(CO)c(CO)c2)cc1 | < 4.52 | 49.7 |  |  | 
CCN(CC)CCCOc1cccc(/C=C/c2ccc(CO)c(CO)c2)c1 | < 4.52 | 42.2 |  |  | 
CCC(O)(CC)CCCCCOc1cccc(COc2ccc(CO)c(CO)c2)c1 | < 4.52 |  | 3.47 |  | 
CCC(O)(CC)CCCOc1cccc(C(Oc2ccc(CO)c(CO)c2)C(C)C)c1 (centres undefined) | < 4.52 |  | 36.4 |  | 
C=CCC(O)(CC=C)CCCCOc1ccc(CCc2ccc(CO)c(CO)c2)cc1 | < 4.52 |  | 16.2 | inactive | 
CC(C)(O)CCCCCOc1cccc(COc2ccc(CO)c(CO)c2)c1 | < 4.52 |  | 27.2 |  | 
CCC(O)(CC)CCCOc1cccc(C(C)Oc2ccc(CO)c(CO)c2)c1 (centres undefined) | < 4.52 | 45.1 |  |  | 
CCC(O)(CC)CCCCOc1ccc(CCc2ccc(CO)c(CO)c2)cc1 | < 4.52 | 44.5 |  | inactive | 
CC(C)(O)CCCOc1cccc(/C=C/c2ccc(CO)c(CO)c2)c1 | < 4.52 | 44.5 |  |  | 
COC(=O)CCCCOc1cccc(COc2ccc(CO)c(CO)c2)c1 | < 4.52 | 45.7 |  |  | 
OCCCCOc1cccc(COc2ccc(CO)c(CO)c2)c1 | < 4.52 | 41.6 |  |  | 
COC(=O)CCCOc1cccc(/C=C/c2ccc(CO)c(CO)c2)c1 | < 4.52 |  | 34.1 |  | 
O=C(O)CCCOc1cccc(COc2ccc(CO)c(CO)c2)c1 | < 4.52 |  | 9.25 |  | 
CC(C)(O)CCCOc1cccc(COc2ccc(CO)c(CO)c2)c1 | < 4.52 |  | 27.2 |  | 
OCCCCCOc1ccc(/C=C/c2ccc(CO)c(CO)c2)cc1 | < 4.52 |  | 36.4 |  | 
CCC(O)(CC)CCCCOc1ccc(/C=C/c2ccc(CO)c(CO)c2)cc1 | < 4.52 |  | 31.2 |  | 
OCc1ccc(/C=C/c2ccc(OCCCN3CCOCC3)cc2)cc1CO | < 4.52 |  | 32.4 |  | 
CCCCC(Oc1ccc(CO)c(CO)c1)c1cccc(OCCCC(O)(CC)CC)c1 (centres undefined) | < 4.52 | 42.2 |  |  | 
OCc1ccc(/C=C/c2cccc(OCCCN3CCOCC3)c2)cc1CO | < 4.52 |  | 34.1 |  | 
CCC(O)(CC)CCCOc1cccc(COc2ccc(CO)c(CO)c2)c1 | < 4.52 | 43.4 |  |  | Active
OCCCCCOc1ccc(CCc2ccc(CO)c(CO)c2)cc1 | < 4.52 | 46.2 |  | inactive | 
C=CCC(O)(CC=C)CCCOc1cccc(COc2ccc(CO)c(CO)c2)c1 | < 4.52 |  | 20.2 |  | 
CCC(O)(CC)CCCCOc1cccc(COc2ccc(CO)c(CO)c2)c1 | < 4.52 |  | 35.8 |  | 
CN1CCN(CCCOc2ccc(/C=C/c3ccc(CO)c(CO)c3)cc2)CC1 | < 4.52 |  | 21.4 |  | 
CC(C)(O)CCCCOc1cccc(COc2ccc(CO)c(CO)c2)c1 | < 4.52 |  | 9.25 |  | 
OCc1ccc(/C=C/c2cccc(OCCCC(O)(c3ccccc3)c3ccccc3)c2)cc1CO | < 4.52 |  | 23.7 |  | 
C=CCC(O)(CC=C)CCCOc1cccc(CCc2ccc(CO)c(CO)c2)c1 | < 4.52 |  | 35.3 | inactive | 
